From ChEMBL document CHEMBL1138883, “Synthesis and biological evaluation of new asymmetrical bisintercalators as potential antitumor drugs” (2006) come the findings set out here.

The subject of experiment [1] is PC-3. Description: Cytotoxicity against PC3 cells by SRB assay after 48 hrs. The experiment is classed as functional. The settings on record: Homo sapiens, PC-3, 48 h. A general note: In SRB staining, fixed cells bind dye roughly in proportion to their protein.
Experiment [2] can be described thus: Ratio of K(app) for [A-T] to [G-C].
Experiment [3] has as its system PC-3. Description: Induction of apoptosis in PC3 measured as percentage of late apoptotic cells by biparametric PI/Annexin V assay at 1.6 uM after 24 hrs. The experiment is classed as functional, Homo sapiens.
The test system of experiment [4] is PC-3. Description: Reduction in PC3 cell viability after 48 hrs by FDA flow cytometer assay. The format is functional, cell-based. The settings on record: Homo sapiens. A general note: Flow cytometry measures light scatter and fluorescence of single cells or particles in a stream.
The test system of experiment [5] is PC-3. Description: Induction of apoptosis in PC3 cells measured as percentage of living cells by biparametric PI/Annexin V assay at 1.6 uM after 4 hrs. The format is functional, Homo sapiens.
In experiment [6] the test system is PC-3. Description: Induction of apoptosis in PC3 measured as percentage of early apoptotic cells by biparametric PI/Annexin V assay at 1.6 uM after 8 hrs. The format is functional, Homo sapiens.
Experiment [7] relates to PC-3. Description: Induction of apoptosis in PC3 measured as percentage of late apoptotic cells by biparametric PI/Annexin V assay at 1.6 uM after 8 hrs. The experiment is classed as functional, Homo sapiens.
Experiment [8] relates to PC-3. Description: Induction of apoptosis in PC3 measured as percentage of necrotic cells by biparametric PI/Annexin V assay at 1.6 uM after 48 hrs. The experiment is classed as functional, Homo sapiens.
Experiment [9] has as its system PC-3. Description: Induction of apoptosis in PC3 measured as percentage of necrotic cells by biparametric PI/Annexin V assay at 1.6 uM after 8 hrs. The experiment is classed as functional, Homo sapiens.
Experiment [10] has as its system PC-3. Description: Induction of necrosis in PC3 cells by DNA fragmentation assay. The experiment is classed as functional, cell-based. The settings on record: Homo sapiens.
The test system of experiment [11] is PC-3. Description: Induction of apoptosis in PC3 measured as percentage of early apoptotic cells by biparametric PI/Annexin V assay at 1.6 uM after 24 hrs. The format is functional, Homo sapiens.
For experiment [12], the system named is PC-3. Description: Induction of apoptosis in PC3 measured as percentage of late apoptotic cells by biparametric PI/Annexin V assay at 1.6 uM after 48 hrs. The experiment is classed as functional, Homo sapiens.
Experiment [13] deals with PC-3. Description: Induction of apoptosis in PC3 measured as percentage of early apoptotic cells by biparametric PI/Annexin V assay at 1.6 uM after 4 hrs. The format is functional, Homo sapiens.
Experiment [14] deals with PC-3. Description: Induction of apoptosis in PC3 measured as percentage of late apoptotic cells by biparametric PI/Annexin V assay at 1.6 uM after 4 hrs. The experiment is classed as functional, Homo sapiens.
Experiment [15] has as its system PC-3. Description: Induction of apoptosis in PC3 cells measured as percentage of living cells by biparametric PI/Annexin V assay at 1.6 uM after 24 hrs. The experiment is classed as functional, Homo sapiens.
In experiment [16] the test system is PC-3. Description: Induction of apoptosis in PC3 cells measured as percentage of living cells by biparametric PI/Annexin V assay at 1.6 uM after 8 hrs. The format is functional, Homo sapiens.
The test system of experiment [17] is PC-3. Description: Induction of apoptosis in PC3 cells measured as percentage of living cells by biparametric PI/Annexin V assay at 1.6 uM after 48 hrs. The format is functional, Homo sapiens.
Experiment [18] deals with PC-3. Description: Induction of apoptosis in PC3 measured as percentage of necrotic cells by biparametric PI/Annexin V assay at 1.6 uM after 24 hrs. The format is functional, Homo sapiens.
For experiment [19], the system named is PC-3. Description: Induction of apoptosis in PC3 measured as percentage of necrotic cells by biparametric PI/Annexin V assay at 1.6 uM after 4 hrs. The experiment is classed as functional, Homo sapiens.
Experiment [20] deals with PC-3. Description: Induction of apoptosis in PC3 measured as percentage of early apoptotic cells by biparametric PI/Annexin V assay at 1.6 uM after 48 hrs. The experiment is classed as functional, Homo sapiens.

The source made the active and inactive calls. The rule behind the calls is not given here.

One may read the GI50 as the concentration at which growth is held to half of that of the control. Low readings indicate greater sensitivity of the cells, high ones lower sensitivity of the cells. Usually TGI stands for the concentration giving total growth inhibition. Read a high TGI as lower sensitivity of the cells. Regarding `COc1cc2c(=O)c3c(NCCCN(C)CCCN4C(=O)c5cccc6cc([N+](=O)[O-])cc(c56)C4=O)ccc4c(=O)n(CCN(C)C)c(=O)n(c2cc1OC)c43`, in the experiment with PC-3 [1], the GI50 worked out at 17 nM, the LC50 (concentration for 50% net cell kill) was determined as 4000 nM and the TGI came to 340 nM. Further, in experiment [2], the Selectivity ratio stood at 1.6.

As for `CN(C)CCNC(=O)c1ccc(NCCCN(C)CCCN2C(=O)c3cccc4cc([N+](=O)[O-])cc(c34)C2=O)c2c(O)c3cc([N+](=O)[O-])ccc3nc12`, in the experiment on PC-3 [1], the GI50 was 8 nM, the LC50 (concentration for 50% net cell kill) was 4100 nM and the TGI was 1300 nM. Moreover, in experiment [2], the Selectivity ratio was 2.1.

In the experiment on PC-3 [1], `CN(C)CCCn1c(=O)c2ccc(NCCCN(C)CCCN3C(=O)c4cccc5cc([N+](=O)[O-])cc(c45)C3=O)c3c(=O)c4ccccc4n(c1=O)c23` registered a GI50 of 1700 nM, an LC50 (concentration for 50% net cell kill) of 6600 nM and a concentration for total growth inhibition (TGI) of 3200 nM. Further, in experiment [2], the Selectivity ratio turned out to be 20.

Turning to `CN(C)CCNC(=O)c1ccc(NCCNCCNCCN2C(=O)c3cccc4cccc(c34)C2=O)c2c(O)c3cc([N+](=O)[O-])ccc3nc12`, in the experiment with PC-3 [1], the GI50 came out at 62 nM, the LC50 (concentration for 50% net cell kill) turned out to be 2500 nM and the total growth inhibition concentration (TGI) came to 390 nM.

In the case of `CN(C)CCCNC(=O)c1ccc(NCCCN(C)CCCN2C(=O)c3cccc4cccc(c34)C2=O)c2c(O)c3ccccc3nc12`, in the experiment on PC-3 [1], growth was halved (GI50) at 600 nM, the LC50 (concentration for 50% net cell kill) turned out to be 4100 nM and the TGI turned out to be 990 nM. Besides, the Selectivity ratio in [2] came out at 6.9.

For the compound `CN(C)CCNC(=O)c1ccc(NCCCN(C)CCCN2C(=O)c3cccc4cc([N+](=O)[O-])cc(c34)C2=O)c2c(O)c3ccccc3nc12`, in the experiment on PC-3 [1], halving of growth (GI50) required 600 nM, the LC50 (concentration for 50% net cell kill) came out at 4400 nM and the TGI was 1000 nM. Moreover, the Selectivity ratio in [2] came to 7.1.

With `CN(C)CCNC(=O)c1ccc(NCCCN(C)CCCNc2ccc3c(=O)n(CCN(C)C)c(=O)n4c5ccccc5c(=O)c2c34)c2c(O)c3cc([N+](=O)[O-])ccc3nc12.Cl`, it took 7 nM to inhibit growth in the experiment with PC-3 [1] by half (GI50). In addition, the LC50 (concentration for 50% net cell kill) in the experiment on PC-3 [1] turned out to be 1600 nM. Moreover, net growth in the experiment with PC-3 [1] stopped (TGI) at 160 nM. The Activity in the experiment with PC-3 [3] was 15.6%; with PC-3 [4], “Time-dependent effect”; with PC-3 [5], 66.5%; with PC-3 [6], 3.6%; with PC-3 [7], 5.5%; with PC-3 [8], 55.7%. In addition, the Activity is on record as 37.9% in the experiment on PC-3 [9]; 2.9% with PC-3 [11]; 35.2% in the experiment on PC-3 [12]; 1.9% with PC-3 [13]; 3% with PC-3 [14]; 37.5% in the experiment on PC-3 [15]. For the same compound, the Activity in the experiment on PC-3 [16] amounted to 53%; in the experiment on PC-3 [17], 5%; in the experiment on PC-3 [18] it was 44%; in the experiment with PC-3 [19], 28.6%; in the experiment with PC-3 [20], 4.1%. In addition, the Selectivity ratio in experiment [2] worked out at 1.9. Also, in the experiment on PC-3 [10], the outcome was Active.

Regarding `COc1ccc2c(c1)c(=O)c1c(NCCCN(C)CCCN3C(=O)c4cccc5cc([N+](=O)[O-])cc(c45)C3=O)ccc3c(=O)n(CCN(C)C)c(=O)n2c31`, in the experiment on PC-3 [1], the GI50 stood at 83 nM, the LC50 (concentration for 50% net cell kill) is 9300 nM and the TGI worked out at 500 nM. Besides, the Selectivity ratio in experiment [2] was determined as 4.8.

`CN(C)CCNC(=O)c1ccc(NCCCN(C)CCCNc2ccc3c(=O)n(CCN(C)C)c(=O)n4c5ccccc5c(=O)c2c34)c2c(O)c3ccccc3nc12`: in the experiment on PC-3 [1], the GI50 was determined as 100 nM, the LC50 (concentration for 50% net cell kill) is 8300 nM and the TGI was 1000 nM. Moreover, the Selectivity ratio in experiment [2] was 1.3.

In the experiment with PC-3 [1], `COc1cc2nc3c(C(=O)NCCN(C)C)ccc(NCCCN(C)CCCN4C(=O)c5cccc6cccc(c56)C4=O)c3c(O)c2cc1OC` had a GI50 of 150 nM, an LC50 (concentration for 50% net cell kill) of more than 50000 nM and a TGI of 3800 nM. In experiment [2], the Selectivity ratio is 1.3.
